Target: T1, GPR146 (Homo sapiens, UniProt Q96CH1)
T1 construct: endogenous in cells; host or cells: KATOIII (human stomach carcinoma)
Experiment: C-peptide-induced cFos expression in KATOIII cells after siRNA transfection
Format: cell-based
Details: 1 nmole C-peptide, 1 hour
Description: Once the hierarchical candidates were identified and ranked, KATOIII cells were then transfected with siRNA (Integrated DNA technologies) (111) directed against either GPR107 (control), GPR146 (most likely candidate not yet tested) or eGFP (green fluorescent protein—control) using Lipofectamine […] (Invitrogen). Five hours later, the media was changed to serum free control media (ATCC) and the serum was starved overnight. Twenty-four (24) hours after transfection with siRNA, cells were treated with 1 nmole C-peptide (Phoenix Pharmaceuticals) for 1 hour, then lysed and RNA were isolated using an RNeasy Kit (Qiagen). RNA was used as a template from the production of cDNA, and changes in cFos expression were determined using RT-PCR (BioRad 2x iQ SyberGreen Master Mix, using a BioRad CFX real time system). […] As this produced the desired negative response (113), GPR146 was the target GPCR (115). The receptiveness of GPR146 to C-peptide has since been verified by additional conventional tests

T1 sequence (Q96CH1 whole entry): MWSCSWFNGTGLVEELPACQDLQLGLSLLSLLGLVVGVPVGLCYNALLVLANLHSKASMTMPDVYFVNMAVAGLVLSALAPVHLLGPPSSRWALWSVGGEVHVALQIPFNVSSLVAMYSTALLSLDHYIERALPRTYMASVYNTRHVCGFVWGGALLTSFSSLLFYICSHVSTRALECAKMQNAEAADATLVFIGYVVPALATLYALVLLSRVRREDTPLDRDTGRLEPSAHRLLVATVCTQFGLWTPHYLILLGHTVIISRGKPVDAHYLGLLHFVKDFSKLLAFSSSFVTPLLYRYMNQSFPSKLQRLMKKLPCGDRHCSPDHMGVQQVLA

C-peptide
changes in cFos expression (KATOIII cells transfected with GPR107 siRNA (control)): increase in cFos
changes in cFos expression (KATOIII cells transfected with GPR146 siRNA (GPR146 compromised), FIG. 6): failed to respond
changes in cFos expression (KATOIII cells transfected with Vehicle (Lipofectamine 2000 alone, no siRNA)): increase in cFos
changes in cFos expression (KATOIII cells transfected with sGFPO siRNA (control)): increase in cFos
